Test results: the NIST ThermoML archive (doi:10.1016/j.fluid.2011.07.014)

Conditions: Liquid, Ebulliometric method (Recirculating still)

CC(C)=C(C)C [2,3-dimethyl-2-butene]
Conditions	vapor or sublimation pressure [kPa]
336.5 K	73.5
338.2 K	77.5
340.6 K	84.2
342.65 K	90.2
344.2 K	94.7
346.24 K	101.2
347.65 K	105.3
350.1 K	113.9
353.46 K	125.5
355.35 K	133.3
357.22 K	140.4
362.8 K	164.8
365.76 K	179.5
368.05 K	190.9
370.36 K	202.8
373.18 K	218.8
375.2 K	230.4
376.5 K	238.5
379.15 K	255.1
381.62 K	271.2
383.05 K	281.3
384.7 K	292.1
386.65 K	306.8
388.2 K	318.4
